The values that follow come from US20080299109A1, “MECHANISM OF ASTRICYTE-NEURON SIGNALING” (Korea Institute of Science and Technology, priority 2007, published 2008).

Holding throughout (assay type): cell-based, rat
The subject of one test is synaptic NMDA receptors. Kind of test: Evoked NMDA EPSC current-voltage relationship in CA1 pyramidal cells. The conditions noted are these: 30 nM thrombin, 0.2 mM Mg^2+. The method, then:
(§1) Young rats (Sprague-Dawley, age P15-P20) or mice (C57/B16, age P14-19) were deeply anesthetized with isoflurane and decapitated. The brain was rapidly removed and submerged in an ice-cold oxygenated artificial cerebrospinal fluid (ACSF) comprised of 130 mM NaCl, 24 mM NaHCO3, 3.5 mM KCl, 1.25 mM NaH2PO4, 1 mM CaCl2,3 mM MgCl2, and 10 mM glucose saturated with 95% O2/5% CO2, at pH 7.4.
Slices were placed on the stage of an upright microscope underneath a platinum and nylon restraining grid, and superfused with oxygenated ACSF at room temperature (23° C.), some experiments are performed at 34° C. by a temperature controller (TC-344B, Warner, Hamden). The standard ACSF recording solution was comprised of 130 mM NaCl, 24 mM NaHCO3, 3.5 mM KCl, 1.25 mM NaH2PO4, 1.5 mM CaCl2, 1.5 mM MgCl2, and 10 mM glucose saturated with 95% O2/5% CO2, at pH 7.4. […]
Synaptic responses were evoked by applying 0.1 ms current injection (1-100 μA) to a bipolar stimulating electrode placed in the stratum radiatum. Thrombin (Calbiochem) concentration was determined as described by Gingrich et al. (2000) using conversion of 1 U/ml=10 nM. […]
EPSCs were evoked by electrical stimulation of Schaffer collateral axons in the CA1 stratum radiatum, and recorded from CA1 pyramidal neurons under voltage clamp. […]

Test [1] has as its system CA1 pyramidal cells. Kind of test: Current clamp membrane potential of CA1 pyramidal cells in hippocampal slices. The note with it: 30 nM thrombin. The method, then: as §1
The hemisected brain was glued onto the stage of a vibrating microtome (Leica VT1000 S) and sections of 300 μm thickness were cut and stored in an incubation chamber at room temperature for about 1 h before use. For voltage clamp experiments, the solution used to fill the electrodes was comprised of 140 mM Cs-MeSO4, 10 mM HEPES, 7 mM NaCl, 4 mM Mg-ATP, and 0.3 mM Na3-GTP; the solution for current clamp recordings was comprised of 140 mM K-MeSO4, 10 mM HEPES, 7 mM NaCl, 4 mM Mg-ATP, and 0.3 mM Na3-GTP, and supplemented with 1 mM QX314; and 1 mM QX314 was omitted from some current clamp recordings (e.g., FIG. 9e).
Slices were placed on the stage of an upright microscope underneath a platinum and nylon restraining grid, and superfused with oxygenated ACSF at room temperature (23° C.), some experiments are performed at 34° C. by a temperature controller (TC-344B, Warner, Hamden). The standard ACSF recording solution was comprised of 130 mM NaCl, 24 mM NaHCO3, 3.5 mM KCl, 1.25 mM NaH2PO4, 1.5 mM CaCl2, 1.5 mM MgCl2, and 10 mM glucose saturated with 95% O2/5% CO2, at pH 7.4. For some experiments 0.5-1 μM TTX, 10 μM NBQX, or 10-20 μM bicuculline were added to the extracellular solution, extracellular Mg^2+ was reduced to 5 μM, and/or extracellular Ca^2+ raised to 2 mM.
Visually guided whole-cell patch recordings were obtained from CA1 pyramidal neurons in a voltage clamp or current clamp configuration using an Axopatch 200A (Axon Instruments) and a borosilicate patch pipette of 5-7 MΩ resistance. […] Records were filtered at 5 kHz and digitized at 20 kHz using a Digidata 1200 A/D board.
Synaptic responses were evoked by applying 0.1 ms current injection (1-100 μA) to a bipolar stimulating electrode placed in the stratum radiatum. Thrombin (Calbiochem) concentration was determined as described by Gingrich et al. (2000) using conversion of 1 U/ml=10 nM. TFLLR and thrombin were applied by gravity perfusion at 1.0 ml/min, with extensive washing of perfusion lines, chamber, and objective between experiments to remove all residual thrombin, which has been reported to irreversibly cleave and PAR1 at a pM concentration. Removal of all thrombin ensured that PAR1 receptors were not pre-cleaved by residual thrombin prior to experimentation.

Test [2] relates to CA1 pyramidal cells. Kind of test: Voltage clamp of CA1 pyramidal cells in hippocampal slices, low Mg2+. The note with it: −60 mV, thrombin 30 nM, TFLLR 30 μM, with and without APV.
Another test concerns CA1 pyramidal neurons. Kind of test: Ca2+ dye imaging of CA1 pyramidal neurons in hippocampal slices. The conditions noted are these: thrombin 30 nM, TFLLR 30 μM, trans-ACPD 100 μM, (S)-3,5-dihydroxyphenylglycine 30 μM. The method, then: as §1
The external solution contained 1 μM TTX. Throughout the experiments, −5 mV voltage steps (15 ms duration) were applied at 30 sec intervals from a holding potential of −70 mV to continuously monitor the holding current, series resistance, and membrane input resistance. After entering whole-cell mode, the CA1 pyramidal cells in slices were maintained for 20 min to allow for dye filling before image acquisition using a Princeton Micromax camera.
After the baseline period, TFLLR (30-100 μM) was applied, and images were acquired every 3 sec with a 25 ms exposure to 450-490 nm light for each image. Ca^2+-dependent fluorescence intensity (520 nm) was measured in cell bodies and processes by using Axon Imaging Workbench (v2.2.1) and expressed as ratio image of (F-Fo)/Fo, where Fo is the fluorescence intensity before drug treatment.

Take thrombin: in the test on synaptic NMDA receptors, the “Mg^2+ block of NMDA EPSCs at −60 mV” value is listed as “significantly less Mg^2+ block”. Also, in the test with CA1 pyramidal cells [1] (1.5 mM Mg^2+, n=22), the membrane depolarization is recorded as 5.7±0.9 mV. In the test on CA1 pyramidal cells [1] (with or without APV 100 μM), the “depolarization of the membrane potential at 23° C.” value was determined as 5.8±1.7 mV and the “depolarization of the membrane potential at 34° C.” value was 4.3±1.0 mV. Moreover, the “amplitude of inward current” value with CA1 pyramidal cells [2] (0.5 μM TTX, 5 μM Mg^2+) is on record as 8.8±3.1 pA. Also, the membrane current variance in the test with CA1 pyramidal cells [2] (TTX, low Mg^2+) was found to be 12.4±1.1 pA^2. Moreover, the “somatic fluorescence of Ca^2+-sensitive dyes in CA1 pyramidal neurons” value in the test on CA1 pyramidal neurons is reported as “no significant increase”.
